Test results: PubChem BioAssay (NCI)
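Cultured in 96-well plates, cells were exposed to test compound for 48 hours across five concentrations. GI50 = concentration required for 50% inhibition of growth. TGI is the concentration that stops growth completely.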

Columns and labels:
Assay in all cases: inhibition of tumour cell growth, NCI panel, 48 h
786-0 renal = system: 786-0 renal
A498 renal = system: A498 renal
A549 NSCLC = system: A549 NSCLC
ACHN renal = system: ACHN renal
BT-549 breast = system: BT-549 breast
CAKI-1 renal = system: CAKI-1 renal
COLO 205 colon = system: COLO 205 colon
DU-145 prostate = system: DU-145 prostate
EKVX NSCLC = system: EKVX NSCLC
HCC-2998 colon = system: HCC-2998 colon
HCT-116 colon = system: HCT-116 colon
HCT-15 colon = system: HCT-15 colon
HL-60(TB) leukemia = system: HL-60(TB) leukemia
HOP-62 NSCLC = system: HOP-62 NSCLC
HS 578T breast = system: HS 578T breast
IGROV1 ovarian = system: IGROV1 ovarian
K-562 leukemia = system: K-562 leukemia
LOX IMVI melanoma = system: LOX IMVI melanoma
M14 melanoma = system: M14 melanoma
MALME-3M melanoma = system: MALME-3M melanoma
MCF7 breast = system: MCF7 breast
MDA-MB-231 breast = system: MDA-MB-231 breast
MDA-MB-435 = system: MDA-MB-435
MDA-MB-468 breast = system: MDA-MB-468 breast
MOLT-4 leukemia = system: MOLT-4 leukemia
NCI-H23 lung = system: NCI-H23 lung
NCI-H522 lung = system: NCI-H522 lung
NCI/ADR-RES ovarian = system: NCI/ADR-RES ovarian
OVCAR-3 ovarian = system: OVCAR-3 ovarian
OVCAR-4 ovarian = system: OVCAR-4 ovarian
OVCAR-5 ovarian = system: OVCAR-5 ovarian
OVCAR-8 ovarian = system: OVCAR-8 ovarian
RXF 393 renal = system: RXF 393 renal
SF-295 CNS = system: SF-295 CNS
SF-539 CNS = system: SF-539 CNS
SK-MEL-2 melanoma = system: SK-MEL-2 melanoma
SK-MEL-28 melanoma = system: SK-MEL-28 melanoma
SK-MEL-5 melanoma = system: SK-MEL-5 melanoma
SK-OV-3 ovarian = system: SK-OV-3 ovarian
SN12C renal = system: SN12C renal
SNB-19 CNS = system: SNB-19 CNS
SNB-75 CNS = system: SNB-75 CNS
SR leukemia = system: SR leukemia
SW-620 colon = system: SW-620 colon
T-47D breast = system: T-47D breast
TK-10 renal = system: TK-10 renal
U251 CNS = system: U251 CNS
UACC-257 melanoma = system: UACC-257 melanoma
UACC-62 melanoma = system: UACC-62 melanoma
UO-31 renal = system: UO-31 renal

CC1=C(C=O)C2=C(C)C3(CC3)[C@@](C)(O)C(=O)C2=C1
GI50 (786-0 renal): 209 nM | TGI (786-0 renal): 491 nM | GI50 (A498 renal): 996 nM | TGI (A498 renal): 2460 nM | GI50 (A549 NSCLC): 276 nM | TGI (A549 NSCLC): 1010 nM | GI50 (ACHN renal): 229 nM | TGI (ACHN renal): 543 nM | GI50 (BT-549 breast): 190 nM | TGI (BT-549 breast): 440 nM | GI50 (CAKI-1 renal): 306 nM | TGI (CAKI-1 renal): 1090 nM | GI50 (COLO 205 colon): 226 nM | TGI (COLO 205 colon): 459 nM | GI50 (DU-145 prostate): 365 nM | TGI (DU-145 prostate): 1310 nM | GI50 (EKVX NSCLC): 244 nM | TGI (EKVX NSCLC): 737 nM | GI50 (HCC-2998 colon): 179 nM | TGI (HCC-2998 colon): 338 nM | GI50 (HCT-116 colon): 161 nM | TGI (HCT-116 colon): 317 nM | GI50 (HCT-15 colon): 180 nM | TGI (HCT-15 colon): 370 nM | GI50 (HL-60(TB) leukemia): 227 nM | TGI (HL-60(TB) leukemia): 703 nM | GI50 (HOP-62 NSCLC): 216 nM | TGI (HOP-62 NSCLC): 518 nM | GI50 (HS 578T breast): 259 nM | TGI (HS 578T breast): 799 nM | GI50 (IGROV1 ovarian): 236 nM | TGI (IGROV1 ovarian): 538 nM | GI50 (K-562 leukemia): 243 nM | TGI (K-562 leukemia): 765 nM | GI50 (LOX IMVI melanoma): 153 nM | TGI (LOX IMVI melanoma): 295 nM | GI50 (M14 melanoma): 212 nM | TGI (M14 melanoma): 463 nM | GI50 (MALME-3M melanoma): 180 nM | TGI (MALME-3M melanoma): 353 nM | GI50 (MCF7 breast): 181 nM | TGI (MCF7 breast): 576 nM | GI50 (MDA-MB-231 breast): 194 nM | TGI (MDA-MB-231 breast): 367 nM | GI50 (MDA-MB-435): 213 nM | TGI (MDA-MB-435): 495 nM | GI50 (MDA-MB-468 breast): 159 nM | TGI (MDA-MB-468 breast): 344 nM | GI50 (MOLT-4 leukemia): 218 nM | TGI (MOLT-4 leukemia): 977 nM | GI50 (NCI-H23 lung): 180 nM | TGI (NCI-H23 lung): 361 nM | GI50 (NCI-H522 lung): 171 nM | TGI (NCI-H522 lung): 333 nM | GI50 (NCI/ADR-RES ovarian): 321 nM | TGI (NCI/ADR-RES ovarian): 1310 nM | GI50 (OVCAR-3 ovarian): 250 nM | TGI (OVCAR-3 ovarian): 618 nM | GI50 (OVCAR-4 ovarian): 407 nM | TGI (OVCAR-4 ovarian): 3990 nM | GI50 (OVCAR-5 ovarian): 223 nM | TGI (OVCAR-5 ovarian): 533 nM | GI50 (OVCAR-8 ovarian): 214 nM | TGI (OVCAR-8 ovarian): 562 nM | GI50 (RXF 393 renal): 147 nM | TGI (RXF 393 renal): 293 nM | GI50 (SF-295 CNS): 194 nM | TGI (SF-295 CNS): 387 nM | GI50 (SF-539 CNS): 178 nM | TGI (SF-539 CNS): 359 nM | GI50 (SK-MEL-2 melanoma): 348 nM | TGI (SK-MEL-2 melanoma): 1180 nM | GI50 (SK-MEL-28 melanoma): 284 nM | TGI (SK-MEL-28 melanoma): 781 nM | GI50 (SK-MEL-5 melanoma): 187 nM | TGI (SK-MEL-5 melanoma): 381 nM | GI50 (SK-OV-3 ovarian): 678 nM | TGI (SK-OV-3 ovarian): 1800 nM | GI50 (SN12C renal): 221 nM | TGI (SN12C renal): 523 nM | GI50 (SNB-19 CNS): 342 nM | TGI (SNB-19 CNS): 1340 nM | GI50 (SNB-75 CNS): 176 nM | TGI (SNB-75 CNS): 547 nM | GI50 (SR leukemia): 212 nM | TGI (SR leukemia): 695 nM | GI50 (SW-620 colon): 255 nM | TGI (SW-620 colon): 694 nM | GI50 (T-47D breast): 199 nM | TGI (T-47D breast): 566 nM | GI50 (TK-10 renal): 519 nM | TGI (TK-10 renal): 2320 nM | GI50 (U251 CNS): 170 nM | TGI (U251 CNS): 341 nM | GI50 (UACC-257 melanoma): 188 nM | TGI (UACC-257 melanoma): 418 nM | GI50 (UACC-62 melanoma): 179 nM | TGI (UACC-62 melanoma): 372 nM | GI50 (UO-31 renal): 170 nM | TGI (UO-31 renal): 359 nM
